Assay results from US9266871B2, “Trifluoromethyl-substituted fused pyrimidines and their use” (BAYER PHARMA AKTIENGESELLSCHAFT, priority 2013, dated 2016).

Assays:
aorta rings = test: Vasorelaxant effect in vitro (phenylephrine-contracted aorta rings); conditions: Oryctolagus cuniculus; relaxation of phenylephrine-induced contraction, rabbit aorta rings
Description: B-1. Vasorelaxant Effect In Vitro
Rabbits are stunned by a blow to the neck and exsanguinated. The aorta is removed, freed from adhering tissue and divided into rings of a width of 1.5 mm. The rings are placed individually under an initial tension in 5 ml organ baths with Krebs-Henseleit solution which is at 37° C., is gassed with carbogen and has the following composition (in each case mM): sodium chloride: 119; potassium chloride: 4.8; calcium chloride dihydrate: 1; magnesium sulphate heptahydrate: 1.4; potassium dihydrogenphosphate: 1.2; sodium bicarbonate: 25; glucose: 10. The contractile force is determined with Statham UC2 cells, amplified and digitalized using A/D transducers (DAS-1802 HC, Keithley Instruments Munich), and recorded in parallel on linear recorders. To produce a contraction, phenylephrine is added to the bath cumulatively in increasing concentration. After several control cycles, the substance to be investigated is added in each further run in increasing dosage in each case, and the height of the contraction achieved is compared with the height of the contraction reached in the last preceding run. This is used to calculate the concentration needed to reduce the magnitude of the control value by 50% (IC50 value). The standard administration volume is 5 μl; the DMSO content in the bath solution corresponds to 0.1%.

bovine PDE 6 = molecular target: T1, bovine PDE 6 (Bos taurus, UniProt P11541+P23439); test: Inhibition of bovine phosphodiesterase 6 (PDE 6), 3H-cGMP SPA; type: biochemical; conditions: bovine PDE 6 inhibition
T1 construct: from tissue; host or cells: bovine retina, photoreceptor outer segments (ROS)
T1 sequence (P11541 2-856 limits assumed): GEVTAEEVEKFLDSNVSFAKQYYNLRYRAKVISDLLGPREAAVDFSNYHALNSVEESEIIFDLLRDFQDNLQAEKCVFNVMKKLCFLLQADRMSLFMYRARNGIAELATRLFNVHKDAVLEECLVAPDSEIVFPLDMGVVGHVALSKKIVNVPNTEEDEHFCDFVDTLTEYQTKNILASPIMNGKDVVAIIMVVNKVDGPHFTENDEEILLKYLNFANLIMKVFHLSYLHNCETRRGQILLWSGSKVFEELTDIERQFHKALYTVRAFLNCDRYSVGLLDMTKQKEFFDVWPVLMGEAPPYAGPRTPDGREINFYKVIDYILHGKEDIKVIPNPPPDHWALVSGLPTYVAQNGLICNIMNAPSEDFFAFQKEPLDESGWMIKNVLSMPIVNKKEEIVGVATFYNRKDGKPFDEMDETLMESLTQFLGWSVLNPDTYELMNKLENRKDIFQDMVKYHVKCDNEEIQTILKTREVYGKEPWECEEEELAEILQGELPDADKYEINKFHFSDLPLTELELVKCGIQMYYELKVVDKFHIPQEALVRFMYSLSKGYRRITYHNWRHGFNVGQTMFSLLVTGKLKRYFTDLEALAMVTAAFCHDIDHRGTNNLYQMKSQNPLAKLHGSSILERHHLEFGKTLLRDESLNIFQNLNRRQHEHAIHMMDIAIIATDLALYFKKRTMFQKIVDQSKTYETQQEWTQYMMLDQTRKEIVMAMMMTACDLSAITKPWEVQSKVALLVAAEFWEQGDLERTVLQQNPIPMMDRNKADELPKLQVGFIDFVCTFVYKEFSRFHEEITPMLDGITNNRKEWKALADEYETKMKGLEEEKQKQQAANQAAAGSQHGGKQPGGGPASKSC
T1 sequence (P23439 2-850 limits assumed): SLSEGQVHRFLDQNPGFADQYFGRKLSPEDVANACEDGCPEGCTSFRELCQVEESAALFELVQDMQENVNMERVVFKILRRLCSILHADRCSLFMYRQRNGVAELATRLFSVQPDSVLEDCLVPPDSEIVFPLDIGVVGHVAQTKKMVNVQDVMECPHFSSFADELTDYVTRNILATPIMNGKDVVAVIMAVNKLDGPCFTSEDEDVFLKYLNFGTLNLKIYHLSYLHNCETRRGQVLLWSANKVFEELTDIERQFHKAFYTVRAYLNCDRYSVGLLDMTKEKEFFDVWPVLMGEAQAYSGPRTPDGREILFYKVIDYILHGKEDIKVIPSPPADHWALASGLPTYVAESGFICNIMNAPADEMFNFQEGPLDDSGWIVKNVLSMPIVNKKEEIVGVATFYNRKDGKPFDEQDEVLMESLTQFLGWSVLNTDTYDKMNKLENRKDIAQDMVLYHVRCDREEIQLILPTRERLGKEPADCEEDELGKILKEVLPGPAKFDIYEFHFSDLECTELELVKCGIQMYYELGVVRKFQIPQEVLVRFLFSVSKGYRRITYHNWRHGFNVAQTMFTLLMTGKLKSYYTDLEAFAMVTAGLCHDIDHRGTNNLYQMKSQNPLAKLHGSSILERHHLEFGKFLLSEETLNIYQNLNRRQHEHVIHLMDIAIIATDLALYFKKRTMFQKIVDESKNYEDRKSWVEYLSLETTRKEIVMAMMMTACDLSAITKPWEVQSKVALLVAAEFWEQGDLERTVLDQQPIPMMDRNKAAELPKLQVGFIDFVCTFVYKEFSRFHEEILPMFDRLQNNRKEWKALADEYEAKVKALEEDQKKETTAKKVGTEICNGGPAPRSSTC
Description: B-6. Inhibition of Bovine Phosphodiesterase 6 (PDE 6)
PDE 6 is purified from external photoreceptor segments of bovine retina (ROS), activated by mild trypsination and purified further by ion exchange chromatography using a Mono Q column. Fractions having PDE 6 activity are combined (PDE 6 preparation) and stored at −80° (I. Saenz de Tejada et al., International Journal of Impotence Research 2001, 13, 282-290). The in vitro effect of test substances on bovine PDE 6 is determined using the commercially available 3H-cGMP Scintillation Proximity Assay (SPA) from Perkin Elmer. The reaction ([…], 37° C.) comprises serial dilution series of the test substances in DMSO and PDE 6 preparation (typical dilution 1:100,000), [8^−3H]guanosine 3′,5′-cyclic phosphate (0.25 μCi/mL; Perkin Elmer) and unlabelled cGMP (10 μM) in assay buffer (50 mM Tris/HCl pH 7.5; 140 mM NaCl; 8.3 mM MgCl2; 1.7 mM EDTA; 0.02% BSA). IC50 values are determined by plotting the substance concentration against the percent PDE 6 inhibition determined (Wunder et al. Molecular Pharmacology 2005, 68, 1775-1781).

SMILES	IC50 (aorta rings) [nM]	IC50 (bovine PDE 6) [nM]
C[C@@]1(C(F)(F)F)C(=O)Nc2nc(-c3nn(Cc4ncccc4F)c4ncc(F)cc34)nc(NCCC(F)(F)F)c21 (single isomer, unassigned) [Example 1-1]	265	220
C[C@]1(C(F)(F)F)C(=O)Nc2nc(-c3nn(Cc4ncccc4F)c4ncc(F)cc34)nc(NCCC(F)(F)F)c21 (single isomer, unassigned) [Example 1-2]	237	1400
